{"source": "paper PMC3247980", "about": "(The Journal of Biological Chemistry, 2011)", "key": {"[1]": {"biological_target": "T1, PfFT1 (Plasmodium falciparum, UniProt Q8IBB7)", "T1 sequence (Q8IBB7 1-505)": "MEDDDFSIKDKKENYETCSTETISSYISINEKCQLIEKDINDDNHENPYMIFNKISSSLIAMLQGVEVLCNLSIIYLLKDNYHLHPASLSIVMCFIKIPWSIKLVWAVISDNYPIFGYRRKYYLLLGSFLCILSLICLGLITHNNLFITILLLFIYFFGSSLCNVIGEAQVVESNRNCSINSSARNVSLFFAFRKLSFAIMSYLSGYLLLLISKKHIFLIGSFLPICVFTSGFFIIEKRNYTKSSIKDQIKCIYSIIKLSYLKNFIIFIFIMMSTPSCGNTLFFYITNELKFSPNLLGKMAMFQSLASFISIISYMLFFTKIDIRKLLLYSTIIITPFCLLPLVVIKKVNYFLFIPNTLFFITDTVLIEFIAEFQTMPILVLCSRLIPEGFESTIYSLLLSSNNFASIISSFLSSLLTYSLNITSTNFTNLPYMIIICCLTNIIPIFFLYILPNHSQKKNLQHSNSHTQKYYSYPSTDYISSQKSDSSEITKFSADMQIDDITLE", "assay": "[3H]folinic acid uptake, Xenopus oocytes", "type": "cell-based", "conditions": "labelled compound, 40 min, pH 7.4, room temperature"}, "[2]": {"biological_target": "T2, PfFT2 (Plasmodium falciparum, UniProt Q8IIK1)", "T2 sequence (Q8IIK1 1-455)": "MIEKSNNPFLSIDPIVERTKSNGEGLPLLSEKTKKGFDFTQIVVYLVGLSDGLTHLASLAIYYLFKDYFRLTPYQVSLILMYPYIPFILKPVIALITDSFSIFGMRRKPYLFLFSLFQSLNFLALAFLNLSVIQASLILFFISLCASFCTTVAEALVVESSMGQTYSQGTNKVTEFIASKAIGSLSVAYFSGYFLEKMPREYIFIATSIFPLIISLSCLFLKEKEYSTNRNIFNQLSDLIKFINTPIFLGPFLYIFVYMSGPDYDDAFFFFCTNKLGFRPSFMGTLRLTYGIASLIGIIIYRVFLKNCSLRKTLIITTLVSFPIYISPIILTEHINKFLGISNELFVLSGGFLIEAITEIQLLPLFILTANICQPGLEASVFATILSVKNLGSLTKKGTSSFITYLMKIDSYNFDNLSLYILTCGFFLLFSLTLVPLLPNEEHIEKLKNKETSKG", "assay": "[3H]folinic acid uptake, Xenopus oocytes", "type": "cell-based", "conditions": "labelled compound, 40 min, pH 7.4, room temperature"}}, "data": [{"smiles": "Nc1nc(=O)c2c([nH]1)NCC(CNc1ccc(C(=O)N[C@@H](CCC(=O)O)C(=O)O)cc1)N2C=O", "note": "(mixture of isomers) [folinic acid]", "values": [{"measurement": "[3H]folinic acid uptake, Xenopus oocytes", "setting": "[1]", "value": "cRNA from PfFT1 and PfFT2 showed significantly higher uptake of [^3H]folinic acid"}, {"measurement": "[3H]folinic acid uptake, Xenopus oocytes", "setting": "[2]", "value": "cRNA from PfFT1 and PfFT2 showed significantly higher uptake of [^3H]folinic acid"}]}]}
